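Grown in 96-well plates, cells were treated for 48 hours with each compound at five concentrations. Insufficient inhibition: endpoint recorded as highest concentration tested. GI50: concentration for 50% inhibition of growth. TGI: total growth inhibition.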
How the values were obtained:
Assay in all cases: growth of human tumour cells (NCI), 48 h
[1] = tested on: DLD-1 colon
[2] = tested on: OVCAR-3 ovarian
[3] = tested on: SK-OV-3 ovarian
[4] = tested on: ACHN renal
[5] = tested on: KM20L2 colon
[6] = tested on: MALME-3M melanoma
[7] = tested on: SK-MEL-28 melanoma
[8] = tested on: MDA-MB-435
[9] = tested on: NCI/ADR-RES ovarian
[10] = tested on: MDA-MB-231 breast

SMILES | TGI [1] [µM] | TGI [2] [µM] | TGI [3] [µM] | TGI [4] [µM] | TGI [5] [µM] | TGI [6] [µM] | TGI [7] [µM] | GI50 [1] [µM] | GI50 [2] [µM] | GI50 [3] [µM] | GI50 [4] [µM] | GI50 [5] [µM] | GI50 [6] [µM] | GI50 [7] [µM] | GI50 [8] [µM] | TGI [8] [µM] | GI50 [9] [µM] | TGI [9] [µM] | GI50 [10] [µM] | TGI [10] [µM]
Cc1ccc(N(C(=O)CC(=O)NN)C(=O)c2ccccc2Cl)cc1 | > 100 | > 100 | > 100 | > 100 | > 100 | > 100 | > 100 | – | – | – | – | – | – | – | – | – | – | – | – | –
Cc1cc(C)nc(NS(=O)(=O)c2ccc(Nc3c4ccccc4nc4c(C(=O)Nc5ccc(S(=O)(=O)Nc6cc(C)on6)cc5)cccc34)cc2)n1 | 78.8 | 33.3 | 61.7 | > 100 | 44.4 | 49 | 52.3 | – | – | – | – | – | – | – | – | – | – | – | – | –
Cc1ccc(Nc2nc3c(s2)C(=O)c2ccccc2C3=O)c(C)c1 | 31.4 | 27.5 | 62.5 | 30.6 | > 100 | 26.9 | 31.1 | – | – | – | – | – | – | – | – | – | – | – | – | –
CCOC(=O)CN=c1nc(SC)sc2c(C(=O)OCC)nc(Sc3ccccc3)n12 | > 100 | > 100 | > 100 | – | > 100 | > 100 | – | – | – | – | – | – | – | – | – | – | – | – | – | –
COc1cc(OC(=O)c2c(O)cc(O)c(O)c2C)cc(C)c1C(=O)Oc1cc(C)c(C(=O)O)c(O)c1 | > 100 | > 100 | > 100 | > 100 | > 100 | > 100 | > 100 | – | – | – | – | – | – | – | – | – | – | – | – | –
O=c1cccccc1NCCCNc1cccccc1=O | – | > 100 | > 100 | > 100 | > 100 | 39.2 | – | – | – | – | – | – | – | – | – | – | – | – | – | –
CN(C)P(=O)(/C(N)=N/Nc1ccc([N+](=O)[O-])cc1)N(C)C | > 100 | > 100 | – | > 100 | > 100 | > 100 | > 100 | – | – | – | – | – | – | – | – | – | – | – | – | –
Cc1ccc2nc3c(C(=O)NCCN(C)C)cccc3nc2c1 | – | 32.4 | > 56.3 | 14.9 | 18.2 | 8.37 | 10.9 | – | – | – | – | – | – | – | – | – | – | – | – | –
CCC[CH2][Sn]1([CH2]CCC)[O]C(=O)C(C(C)C)N=Cc2ccccc2[O]1 (configuration not stated) | > 100 | 1.99 | 1.63 | 0.882 | 2.22 | 0.456 | 0.819 | 0.499 | 0.73 | 0.52 | 0.274 | 1.04 | 0.188 | 0.235 | – | – | – | – | – | –
Cn1cc(C(=O)c2ccccc2)ccc1=O | > 100 | > 100 | > 100 | > 100 | > 100 | > 100 | > 100 | – | – | – | – | – | – | – | – | – | – | – | – | –
COc1cc(OC)c(/C=C/C(=O)c2c(OC)cccc2OC)c(OC)c1 | – | – | > 100 | > 100 | – | > 100 | > 21.3 | – | 0.431 | 0.79 | 0.703 | – | 0.45 | 1.01 | 0.263 | 1.09 | 0.387 | > 25.8 | 1.07 | > 100
COc1cc[nH]c1/C=C1\C(=O)Nc2ccccc21 | – | > 25 | > 25 | > 25 | – | > 25 | > 25 | – | > 21.5 | 8.14 | 3.5 | – | 9.88 | 16 | 9.01 | > 25 | 15.5 | > 25 | 4.87 | > 25
